Tests used:
[1] = Deliquescence relative humidity (DRH) by water activity meter; assay type: physicochemical; settings: for DRH (deliquescence relative humidity): saturated aqueous solution with excess solid at 25° C.
From the text: If saturated in water with excess solid, a deliquescing compound or salt thereof equilibrated in a closed system at a given temperature produces a % RH in that closed system that is equal to its deliquescing % RH (DRH) at that temperature. Fractional relative humidity is equal to water activity (aw) in the vapor phase and at equilibrium in a closed system, the aw in an aqueous solution is equal to the aw in the vapor phase above the solution (see Equation 1).
A water activity meter was used to measure DRH for selected salts described herein. […] This instrument is designed with temperature control and a small headspace above the enclosed sample to establish equilibrium between solution and vapor phases quickly.

[2] = Aqueous solubility by UPLC; assay type: physicochemical; settings: for Solubility in water: UPLC
Procedure: Acquity ultra performance liquid chromatography (UPLC) from Waters was used for solubility and stoichiometry determination. […] UPLC was equipped with Acquity PDA detector. UPLC mobile phase solvent A was 0.1% TFA in DI-water, solvent B was 0.1% TFA in acetonitrile.
Column temperature was 40±5° C. Acquity UPLC® HSS T3 1.8 μm, 2.1×50 mm column was used.
A known amount of sample was dissolved in water and analyzed by UPLC.

[3] = cited from earlier work
[4] = cited from earlier work; remark: listed apart in the source
[5] = Dynamic moisture-sorption (DMS) analysis; settings: for DMS weight increase at 70% RH: adsorption cycle, 25° C., Form I; for State of the sample after DMS analysis: after removal from the analyzer, PXRD where done
Procedure: Samples were prepared for DMS analysis by placing 5 mg to 20 mg of a sample in a tared sample holder. The sample was placed on the hang-down wire of the VTI balance. A drying step was run, typically at 40° C. and 0.5-1% RH for 1-2 h. The isotherm temperature is 25° C. […] A % weight change smaller than 0.010% over a specified number of minutes (typically 10-20), or up to 2 h, whichever occurs first, is required before continuing to the next % RH hold. The water content of the sample equilibrated as described above was determined at each % RH hold.

[6] = patients who completed 52 weeks of treatment according to the protocol
[7] = pivotal phase 3 program, up to two years
[8] = second phase 3 trial, top quartile of patients

## CC1(C)C2CC[C@@]1(CS(=O)(=O)O)C(=O)C2.C[C@H]1CNCCc2ccc(Cl)cc21 [(R)-8-Chloro-1-methyl-2,3,4,5-tetrahydro-1H-3-benzazepine (1S)-(+)-10-Camsylate Salt]
[1]; 25° C.
  Deliquescence conclusion from DRH: not deliquescent
[1]
  DRH (deliquescence relative humidity): 99.8 % RH
[2]
  Solubility in water: 20 mg/mL

## C[C@H]1CNCCc2ccc(Cl)cc21.Cl [lorcaserin, (R)-8-Chloro-1-methyl-2,3,4,5-tetrahydro-1H-3-benzazepine hydrochloride]
[3]; 12 months, ITT-LOCF analysis
  Average weight loss, % of body weight: 5.8%
  Average weight loss, pounds: 12.7 pounds
  Patients who lost greater than or equal to 5% of their body weight from baseline: 47.5%
  Patients who lost greater than or equal to 10% of their body weight from baseline: 22.6%
[3]; [6]
  Average weight loss of completers, % of body weight: 8.2%
  Average weight loss of completers, pounds: 17.9 pounds
[3]; phase 3 trial
  Tolerability: generally very well tolerated
[3]; two-year treatment period
  FDA-defined valvulopathy (echocardiograms): no apparent drug-related effect
[4]; first phase 3 trial, based on a normal BMI of 25
  Excess body weight lost: about one-third
[4]; [7]
  Patients who achieved at least 5% weight loss: About two-thirds
  Patients who achieved at least 10% weight loss: over one-third
[4]; pivotal phase 3 program
  Average weight lost, % of weight: about 8%
  Depression or suicidal ideation: no signal
  Heart rate and blood pressure: went down
  Risk of cardiac valvulopathy: did not increase the risk of cardiac valvulopathy
[4]; [8]
  Average weight loss of the top quartile, % of body weight: 16%
  Average weight loss of the top quartile, pounds: 35 pounds

## (R)-8-Chloro-1-methyl-2,3,4,5-tetrahydro-1H-3-benzazepine Pyroglutamate Salt [Compound 1 Pyroglutamate Salt, Form I]
[5]
  DMS weight increase at 70% RH: ~17%
  State of the sample after DMS analysis: sticky oil
[5]; listed as Compound 1 Pyrogluconate Salt
  DMS weight increase at 70% RH: FIG. 21: 17-24% weight increase at 70% RH, about

## (R)-8-Chloro-1-methyl-2,3,4,5-tetrahydro-1H-3-benzazepine Hemi-L-malate Salt [Compound 1 Hemi-L-Malate Salt, Form I]
[1]
  DRH (deliquescence relative humidity): 89.9 % RH
[2]
  Solubility in water: 486.3 mg/mL

## C[C@H]1CNCCc2ccc(Cl)cc21.C[C@H]1CNCCc2ccc(Cl)cc21.O=C(O)[C@@H](O)[C@H](O)[C@H](O)[C@@H](O)C(=O)O [Compound 1 Hemimucate Salt, Form I, (R)-8-Chloro-1-methyl-2,3,4,5-tetrahydro-1H-3-benzazepine Hemimucate]
[2]
  Solubility in water: 0.85 mg/mL

## (R)-8-Chloro-1-methyl-2,3,4,5-tetrahydro-1H-3-benzazepine Di-camphorate Salt Solvate
[2]
  Solubility in water: 38.6 mg/mL
[2]; water, pH 5.2
  Aqueous solubility expressed as the free base: 12.3 mg/mL
[5]; 25° C. and 10% RH
  DMS weight lost on the desorption phase: over 1.2%
[5]
  State of the sample after DMS analysis: crystalline phase did not change

## (R)-8-Chloro-1-methyl-2,3,4,5-tetrahydro-1H-3-benzazepine Glucuronate Salt [Compound 1 Glucuronate Salt, Form I]
[2]
  Solubility in water: 2.5 mg/mL
